Measured values reported in PubChem BioAssay AID434974 (The Scripps Research Institute Molecular Screening Center, 2010).
Calls of active or inactive are those of the source. The rule behind the calls is not given here.

Key:
Experiment in all cases: receptor and transporter displacement selectivity profile – biochemical, radioligand binding, PDSP, selectivity assay for NOX1 inhibitor project, profiling panel (AID 434974)
[1] = tested on: Prostaglandin receptor EP4; details: at 10 µM, hits give high values
Serotonin receptor 5ht1a = details: at 10 µM, hits give high values
Sigma receptor 1 = details: at 10 µM, hits give high values
[2] = biological target: Delta-type opioid receptor (Homo sapiens) (UniProt P41143); details: Opioid receptor DOR, at 10 µM, hits give high values
[3] = tested on: Adrenergic receptor Alpha1B; details: at 10 µM, hits give high values
[4] = biological target: Muscarinic acetylcholine receptor M3 (Homo sapiens) (UniProt P20309); details: at 10 µM, hits give high values
[5] = biological target: 5-hydroxytryptamine receptor 2B (Homo sapiens) (UniProt P41595); details: Serotonin receptor 5ht2b, at 10 µM, hits give high values
Nicotinic receptor A2B2 = details: at 10 µM, hits give high values
Serotonin receptor 5ht1d = details: at 10 µM, hits give high values
GABA receptor GABAa a1 = details: at 10 µM, hits give high values
[6] = biological target: Oxytocin receptor (Homo sapiens) (UniProt P30559); details: at 10 µM, hits give high values
[7] = biological target: D(3) dopamine receptor (Homo sapiens) (UniProt P35462); details: Dopamine receptor D3, at 10 µM, hits give high values
[8] = biological target: Beta-2 adrenergic receptor (Homo sapiens) (UniProt P07550); details: Adrenergic receptor Beta2, at 10 µM, hits give high values
Nicotinic receptor A3B2 = details: at 10 µM, hits give high values
[9] = tested on: Adrenergic receptor Alpha1D; details: at 10 µM, hits give high values
[10] = biological target: Alpha-2A adrenergic receptor (Homo sapiens) (UniProt P08913); details: Adrenergic receptor Alpha2A, at 10 µM, hits give high values
Serotonin receptor 5ht1e = details: at 10 µM, hits give high values
Histamine receptor H1 = details: at 10 µM, hits give high values
[11] = tested on: Adrenergic receptor Beta1; details: at 10 µM, hits give high values
GABA receptor PBR = details: at 10 µM, hits give high values
[12] = tested on: Biogenic amine transporter NET; details: at 10 µM, hits give high values
Sigma receptor 2 = details: at 10 µM, hits give high values
[13] = biological target: Alpha-2B adrenergic receptor (Homo sapiens) (UniProt P18089); details: Adrenergic receptor Alpha2B, at 10 µM, hits give high values
Nicotinic receptor A4B4 = details: at 10 µM, hits give high values
Serotonin receptor 5ht6 = details: at 10 µM, hits give high values
[14] = tested on: Glutamate receptor NMDA PCP site; details: at 10 µM, hits give high values
[15] = tested on: Biogenic amine transporter DAT; details: at 10 µM, hits give high values
Muscarinic receptor M4 = details: at 10 µM, hits give high values
Serotonin receptor 5ht5a = details: at 10 µM, hits give high values
Nicotinic receptor A4B2 = details: at 10 µM, hits give high values
Dopamine receptor D2 = details: at 10 µM, hits give high values
Serotonin receptor 5ht3 = details: at 10 µM, hits give high values
[16] = biological target: Cannabinoid receptor 2 (Homo sapiens) (UniProt P34972); details: Cannabinoid receptor CB2, at 10 µM, hits give high values
[17] = tested on: Prostaglandin receptor EP3; details: at 10 µM, hits give high values
Serotonin receptor 5ht2c = details: at 10 µM, hits give high values
[18] = biological target: Alpha-2C adrenergic receptor (Homo sapiens) (UniProt P18825); details: Adrenergic receptor Alpha2C, at 10 µM, hits give high values
GABA receptor GABAa = details: at 10 µM, hits give high values
[19] = tested on: Adrenergic receptor Alpha1A; details: at 10 µM, hits give high values
Serotonin receptor 5ht1b = details: at 10 µM, hits give high values
Histamine receptor H4 = details: at 10 µM, hits give high values
[20] = biological target: Muscarinic acetylcholine receptor M1 (Homo sapiens) (UniProt P11229); details: at 10 µM, hits give high values
Vasopressin receptor V2 = details: at 10 µM, hits give high values
[21] = biological target: Muscarinic acetylcholine receptor M2 (Homo sapiens) (UniProt P08172); details: at 10 µM, hits give high values
[22] = biological target: D(1B) dopamine receptor (Homo sapiens) (UniProt P21918); details: Dopamine receptor D5, at 10 µM, hits give high values
Ca+ Channel = details: at 10 µM, hits give high values
[23] = biological target: D(1A) dopamine receptor (Homo sapiens) (UniProt P21728); details: Dopamine receptor D1, at 10 µM, hits give high values
Vasopressin receptor V1B = details: at 10 µM, hits give high values
Serotonin receptor 5ht2a = details: at 10 µM, hits give high values
Histamine receptor H2 = details: at 10 µM, hits give high values
[24] = biological target: Kappa-type opioid receptor (Homo sapiens) (UniProt P41145); details: Opioid receptor KOR, at 10 µM, hits give high values
Histamine receptor H3 = details: at 10 µM, hits give high values
Muscarinic receptor M5 = details: at 10 µM, hits give high values
[25] = tested on: Biogenic amine transporter SERT; details: at 10 µM, hits give high values
[26] = tested on: Adrenergic receptor Beta3; details: at 10 µM, hits give high values
Vasopressin receptor V1A = details: at 10 µM, hits give high values
Nicotinic receptor A3B4 = details: at 10 µM, hits give high values
Nicotinic receptor A2B4 = details: at 10 µM, hits give high values
Opioid receptor MOR = details: at 10 µM, hits give high values
Serotonin receptor 5ht7 = details: at 10 µM, hits give high values
Cannabinoid receptor CB1 = details: at 10 µM, hits give high values
BZP Rat Brain Site = details: at 10 µM, hits give high values
Dopamine receptor D4 = details: at 10 µM, hits give high values

Sequence of D(3) dopamine receptor (Homo sapiens) (P35462 whole entry, looked up): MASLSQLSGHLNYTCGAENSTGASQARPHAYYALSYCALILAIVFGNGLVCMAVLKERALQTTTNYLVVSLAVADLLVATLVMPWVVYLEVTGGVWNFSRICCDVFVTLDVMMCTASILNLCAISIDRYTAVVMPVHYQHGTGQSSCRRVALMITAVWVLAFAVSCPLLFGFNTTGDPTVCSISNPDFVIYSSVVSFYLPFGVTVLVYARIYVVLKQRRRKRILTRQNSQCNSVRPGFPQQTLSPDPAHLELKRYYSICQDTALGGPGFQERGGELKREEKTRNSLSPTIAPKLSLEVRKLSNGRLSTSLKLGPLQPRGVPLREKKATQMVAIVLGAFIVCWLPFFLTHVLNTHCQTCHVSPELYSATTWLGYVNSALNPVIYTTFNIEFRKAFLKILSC
Sequence of Muscarinic acetylcholine receptor M2 (Homo sapiens) (P08172 whole entry, looked up): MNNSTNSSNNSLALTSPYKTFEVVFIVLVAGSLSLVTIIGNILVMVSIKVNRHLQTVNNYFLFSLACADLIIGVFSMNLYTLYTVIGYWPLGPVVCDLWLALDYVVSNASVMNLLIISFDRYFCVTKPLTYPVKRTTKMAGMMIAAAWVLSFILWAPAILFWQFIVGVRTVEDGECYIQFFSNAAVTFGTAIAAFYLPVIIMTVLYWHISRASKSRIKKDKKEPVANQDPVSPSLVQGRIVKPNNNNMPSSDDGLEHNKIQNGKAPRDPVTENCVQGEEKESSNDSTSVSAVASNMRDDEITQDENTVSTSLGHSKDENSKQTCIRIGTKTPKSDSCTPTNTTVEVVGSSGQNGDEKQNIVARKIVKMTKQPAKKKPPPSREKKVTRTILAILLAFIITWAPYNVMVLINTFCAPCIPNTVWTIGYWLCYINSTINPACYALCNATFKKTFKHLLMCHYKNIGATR
Sequence of Delta-type opioid receptor (Homo sapiens) (P41143 whole entry, looked up): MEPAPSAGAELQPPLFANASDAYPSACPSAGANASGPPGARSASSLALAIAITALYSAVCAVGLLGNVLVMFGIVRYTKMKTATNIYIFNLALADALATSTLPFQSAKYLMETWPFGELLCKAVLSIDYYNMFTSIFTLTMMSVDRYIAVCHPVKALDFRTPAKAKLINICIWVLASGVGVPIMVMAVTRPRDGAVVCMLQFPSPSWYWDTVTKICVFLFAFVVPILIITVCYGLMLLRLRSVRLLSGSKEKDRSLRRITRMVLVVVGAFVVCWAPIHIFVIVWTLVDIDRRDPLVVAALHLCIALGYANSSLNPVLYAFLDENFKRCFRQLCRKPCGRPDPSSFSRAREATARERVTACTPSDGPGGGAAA
Sequence of D(1A) dopamine receptor (Homo sapiens) (P21728 whole entry, looked up): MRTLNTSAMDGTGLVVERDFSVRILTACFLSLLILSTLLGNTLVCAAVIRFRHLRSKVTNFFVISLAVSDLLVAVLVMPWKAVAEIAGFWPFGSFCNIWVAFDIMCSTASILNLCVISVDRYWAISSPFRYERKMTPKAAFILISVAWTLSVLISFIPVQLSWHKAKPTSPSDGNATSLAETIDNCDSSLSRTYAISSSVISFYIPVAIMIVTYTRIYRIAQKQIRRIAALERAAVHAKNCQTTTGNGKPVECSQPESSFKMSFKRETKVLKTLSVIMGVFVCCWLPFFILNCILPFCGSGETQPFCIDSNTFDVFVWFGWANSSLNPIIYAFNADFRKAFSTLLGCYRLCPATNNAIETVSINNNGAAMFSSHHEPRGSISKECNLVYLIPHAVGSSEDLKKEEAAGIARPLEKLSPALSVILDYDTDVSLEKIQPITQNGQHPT
Sequence of Beta-2 adrenergic receptor (Homo sapiens) (P07550 whole entry, looked up): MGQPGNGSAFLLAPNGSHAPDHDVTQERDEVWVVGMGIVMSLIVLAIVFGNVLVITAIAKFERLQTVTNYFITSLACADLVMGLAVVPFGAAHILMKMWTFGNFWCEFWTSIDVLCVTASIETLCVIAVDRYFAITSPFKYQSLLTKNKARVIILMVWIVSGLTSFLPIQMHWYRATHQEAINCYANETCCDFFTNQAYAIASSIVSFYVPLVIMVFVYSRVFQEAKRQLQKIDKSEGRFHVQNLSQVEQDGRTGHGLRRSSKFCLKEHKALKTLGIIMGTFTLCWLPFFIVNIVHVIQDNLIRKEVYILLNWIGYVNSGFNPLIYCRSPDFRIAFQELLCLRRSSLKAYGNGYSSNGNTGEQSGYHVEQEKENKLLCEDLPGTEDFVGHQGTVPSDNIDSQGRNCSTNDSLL
Sequence of Oxytocin receptor (Homo sapiens) (P30559 whole entry, looked up): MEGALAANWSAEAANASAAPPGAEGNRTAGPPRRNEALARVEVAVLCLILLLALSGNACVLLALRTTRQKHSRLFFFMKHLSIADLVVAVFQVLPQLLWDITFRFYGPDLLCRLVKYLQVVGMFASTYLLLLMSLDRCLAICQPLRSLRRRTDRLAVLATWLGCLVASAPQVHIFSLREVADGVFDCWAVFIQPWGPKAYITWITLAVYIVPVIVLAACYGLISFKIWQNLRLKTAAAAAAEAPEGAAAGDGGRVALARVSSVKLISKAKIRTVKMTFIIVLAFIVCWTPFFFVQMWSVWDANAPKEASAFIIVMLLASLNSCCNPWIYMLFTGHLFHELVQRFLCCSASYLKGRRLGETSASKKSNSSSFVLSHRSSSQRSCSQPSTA
Sequence of Alpha-2B adrenergic receptor (Homo sapiens) (P18089 whole entry, looked up): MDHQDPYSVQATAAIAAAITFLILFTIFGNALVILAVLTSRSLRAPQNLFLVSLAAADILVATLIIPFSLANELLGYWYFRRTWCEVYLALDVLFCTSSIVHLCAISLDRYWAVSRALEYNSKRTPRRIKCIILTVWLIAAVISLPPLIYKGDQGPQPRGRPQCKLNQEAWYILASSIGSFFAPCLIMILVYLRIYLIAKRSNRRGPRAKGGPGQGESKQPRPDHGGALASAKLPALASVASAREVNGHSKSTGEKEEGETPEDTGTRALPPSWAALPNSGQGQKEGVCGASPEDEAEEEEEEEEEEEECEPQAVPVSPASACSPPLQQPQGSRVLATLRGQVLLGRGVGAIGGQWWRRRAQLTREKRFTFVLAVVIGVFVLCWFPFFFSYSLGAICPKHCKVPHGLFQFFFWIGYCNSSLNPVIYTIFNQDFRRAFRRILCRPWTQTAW
Sequence of Alpha-2A adrenergic receptor (Homo sapiens) (P08913 whole entry, looked up): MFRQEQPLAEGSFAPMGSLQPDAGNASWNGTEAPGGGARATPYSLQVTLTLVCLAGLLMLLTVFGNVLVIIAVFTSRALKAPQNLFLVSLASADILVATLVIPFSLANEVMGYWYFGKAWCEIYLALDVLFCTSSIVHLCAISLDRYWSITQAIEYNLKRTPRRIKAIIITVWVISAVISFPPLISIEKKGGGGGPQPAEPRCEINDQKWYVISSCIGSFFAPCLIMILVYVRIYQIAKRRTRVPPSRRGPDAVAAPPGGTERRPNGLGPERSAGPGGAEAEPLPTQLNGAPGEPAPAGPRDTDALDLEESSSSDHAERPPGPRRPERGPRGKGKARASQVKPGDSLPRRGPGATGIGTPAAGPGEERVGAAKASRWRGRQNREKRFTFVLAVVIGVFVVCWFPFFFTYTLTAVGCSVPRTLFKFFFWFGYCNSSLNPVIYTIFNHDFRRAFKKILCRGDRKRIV
Sequence of Muscarinic acetylcholine receptor M1 (Homo sapiens) (P11229 whole entry, looked up): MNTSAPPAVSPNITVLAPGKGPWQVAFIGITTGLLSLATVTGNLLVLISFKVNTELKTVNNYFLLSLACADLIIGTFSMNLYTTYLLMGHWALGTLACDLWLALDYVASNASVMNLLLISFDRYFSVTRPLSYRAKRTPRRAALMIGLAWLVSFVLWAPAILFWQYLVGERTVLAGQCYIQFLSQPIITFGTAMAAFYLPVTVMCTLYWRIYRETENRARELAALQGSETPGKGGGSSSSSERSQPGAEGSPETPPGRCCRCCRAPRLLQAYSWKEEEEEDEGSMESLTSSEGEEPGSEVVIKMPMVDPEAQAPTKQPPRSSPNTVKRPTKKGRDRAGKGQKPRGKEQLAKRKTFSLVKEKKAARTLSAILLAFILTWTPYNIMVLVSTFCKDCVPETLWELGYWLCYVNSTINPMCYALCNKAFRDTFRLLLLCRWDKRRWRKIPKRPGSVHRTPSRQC
Sequence of Alpha-2C adrenergic receptor (Homo sapiens) (P18825 whole entry, looked up): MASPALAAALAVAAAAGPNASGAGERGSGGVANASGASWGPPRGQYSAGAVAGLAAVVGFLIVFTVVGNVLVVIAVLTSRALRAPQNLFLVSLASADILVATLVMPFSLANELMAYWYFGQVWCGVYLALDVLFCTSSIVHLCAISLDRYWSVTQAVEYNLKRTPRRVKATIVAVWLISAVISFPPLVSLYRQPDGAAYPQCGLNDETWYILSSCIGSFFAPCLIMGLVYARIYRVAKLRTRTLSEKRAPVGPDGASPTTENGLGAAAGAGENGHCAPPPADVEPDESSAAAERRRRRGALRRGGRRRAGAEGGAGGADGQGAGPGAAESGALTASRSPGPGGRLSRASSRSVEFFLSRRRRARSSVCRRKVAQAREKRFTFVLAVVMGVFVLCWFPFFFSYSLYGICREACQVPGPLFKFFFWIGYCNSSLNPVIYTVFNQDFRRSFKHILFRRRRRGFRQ
Sequence of D(1B) dopamine receptor (Homo sapiens) (P21918 whole entry, looked up): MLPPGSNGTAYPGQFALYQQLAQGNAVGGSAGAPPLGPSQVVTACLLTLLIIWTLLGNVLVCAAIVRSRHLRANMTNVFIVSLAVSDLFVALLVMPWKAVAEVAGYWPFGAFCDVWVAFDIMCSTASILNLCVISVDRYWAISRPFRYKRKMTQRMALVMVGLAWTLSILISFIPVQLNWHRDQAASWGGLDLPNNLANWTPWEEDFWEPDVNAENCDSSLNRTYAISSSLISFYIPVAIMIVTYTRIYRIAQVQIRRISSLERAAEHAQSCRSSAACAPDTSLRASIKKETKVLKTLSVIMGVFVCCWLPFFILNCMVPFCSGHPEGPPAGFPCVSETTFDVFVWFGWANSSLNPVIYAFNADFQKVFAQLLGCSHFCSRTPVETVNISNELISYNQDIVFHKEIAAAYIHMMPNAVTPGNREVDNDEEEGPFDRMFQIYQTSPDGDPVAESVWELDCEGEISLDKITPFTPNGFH

CN1c2ccccc2Sc2cc(N)ccc21
inhibition [1]: 45.5% (inactive) | inhibition (Serotonin receptor 5ht1a): 34.4% (inactive) | inhibition (Sigma receptor 1): 50.1% | inhibition [2]: -0.5% (inactive) | inhibition [3]: 38.4% (inactive) | inhibition [4]: -5.8% (inactive) | inhibition [5]: 84.3% | inhibition (Nicotinic receptor A2B2): -4% (inactive) | inhibition (Serotonin receptor 5ht1d): 16.1% (inactive) | inhibition (GABA receptor GABAa a1): 16.2% (inactive) | inhibition [6]: 38.3% (inactive) | inhibition [7]: 59.2% | inhibition [8]: -0.9% (inactive) | inhibition (Nicotinic receptor A3B2): 4% (inactive) | inhibition [9]: 23.8% (inactive) | inhibition [10]: 50.7% | inhibition (Serotonin receptor 5ht1e): 13.1% (inactive) | inhibition (Histamine receptor H1): 46.4% (inactive) | inhibition [11]: 23.5% (inactive) | inhibition (GABA receptor PBR): 32.1% (inactive) | inhibition [12]: 60.5% | inhibition (Sigma receptor 2): 9% (inactive) | inhibition [13]: 58.8% | inhibition (Nicotinic receptor A4B4): 7% (inactive) | inhibition (Serotonin receptor 5ht6): 30.8% (inactive) | inhibition [14]: 25% (inactive) | inhibition [15]: 16% (inactive) | inhibition (Muscarinic receptor M4): 19.3% (inactive) | inhibition (Serotonin receptor 5ht5a): 45.6% (inactive) | inhibition (Nicotinic receptor A4B2): 1% (inactive) | inhibition (Dopamine receptor D2): 22.6% (inactive) | inhibition (Serotonin receptor 5ht3): 1.4% (inactive) | inhibition [16]: 3.8% (inactive) | inhibition [17]: 0% (inactive) | inhibition (Serotonin receptor 5ht2c): 62.4% | inhibition [18]: 98.2% | inhibition (GABA receptor GABAa): 25% (inactive) | inhibition [19]: 36.3% (inactive) | inhibition (Serotonin receptor 5ht1b): 11.3% (inactive) | inhibition (Histamine receptor H4): 10.1% (inactive) | inhibition [20]: 1.1% (inactive) | inhibition (Vasopressin receptor V2): -5.5% (inactive) | inhibition [21]: 22.4% (inactive) | inhibition [22]: 16.8% (inactive) | inhibition (Ca+ Channel): -19.4% (inactive) | inhibition [23]: 23.6% (inactive) | inhibition (Vasopressin receptor V1B): 8.9% (inactive) | inhibition (Serotonin receptor 5ht2a): 33.2% (inactive) | inhibition (Histamine receptor H2): 43% (inactive) | inhibition [24]: 16.3% (inactive) | inhibition (Histamine receptor H3): -2.4% (inactive) | inhibition (Muscarinic receptor M5): 2.3% (inactive) | inhibition [25]: 16.4% (inactive) | inhibition [26]: 3.5% (inactive) | inhibition (Vasopressin receptor V1A): 4% (inactive) | inhibition (Nicotinic receptor A3B4): 0% (inactive) | inhibition (Nicotinic receptor A2B4): 4% (inactive) | inhibition (Opioid receptor MOR): -18% (inactive) | inhibition (Serotonin receptor 5ht7): -5.7% (inactive) | inhibition (Cannabinoid receptor CB1): 5% (inactive) | inhibition (BZP Rat Brain Site): 44.8% (inactive) | inhibition (Dopamine receptor D4): 34.7% (inactive)
